Reference: patent US20090048295A1, “SUBSTITUTED 5,6,7,8-TETRAHYDROQUINOLINE DERIVATIVES, COMPOSITIONS, AND METHODS OF USE THEREOF” (priority 2007, published 2009)
“And” between values parts separate entries of the source, which are not always exact repeats. Identical values can stand only once.

Assays:
C5a receptor [1] = target: T1, C5a receptor (Homo sapiens, UniProt P21730); assay: [125I]-C5a Radioligand Binding Assay (competition binding, differentiated U937 cells); conditions: for inhibition at 1 µM: read-out: [125I]-C5a Binding % Inhibition 1 μM, test compound 1 μM; for inhibition at 1 µM / inhibition at 10 µM / [125I]-C5a Binding % Inhibition 1 μM / [125I]-C5a Binding % Inhibition 10 μM: [125I]-C5a 0.05 nM, U937 cells, multiple values = duplicate experiments; for inhibition at 10 µM: read-out: [125I]-C5a Binding % Inhibition 10 μM, test compound 10 μM; for [125I]-C5a Binding % Inhibition 1 μM: test compound 1 μM; for [125I]-C5a Binding % Inhibition 10 μM: test compound 10 μM;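 as to all read-outs here: cells preincubated with compound 30 min at room temperature, then 60 min at 4 °C with radioligand, bound counts read by scintillation, nonspecific binding defined with 100 nM C5a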
T1 sequence (P21730 1-350): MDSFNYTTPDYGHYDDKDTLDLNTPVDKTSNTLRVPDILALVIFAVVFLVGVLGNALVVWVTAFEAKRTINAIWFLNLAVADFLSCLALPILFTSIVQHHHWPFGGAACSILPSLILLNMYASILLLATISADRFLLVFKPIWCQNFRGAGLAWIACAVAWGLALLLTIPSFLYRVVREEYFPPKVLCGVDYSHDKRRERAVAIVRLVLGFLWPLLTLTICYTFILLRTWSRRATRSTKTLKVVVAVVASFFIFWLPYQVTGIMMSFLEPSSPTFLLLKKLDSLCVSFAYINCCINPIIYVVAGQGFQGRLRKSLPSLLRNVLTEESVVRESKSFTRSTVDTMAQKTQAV
Method: Competition binding assays for C5a receptors were performed by incubation of differentiated U937 cells (200,000 cells/well), test compound (1% DMSO) and [^125I]-C5a (Bolton & Hunter labeled, Perkin Elmer, specific activity=2200 Ci/mmol, 0.05 nM final) in binding buffer consisting of 50 mM HEPES, 5 mM MgCl2, 1 mM CaCl2, 0.5% protease-free BSA, 0.02% NaN3, pH 7.4. 100× solutions of test compounds were prepared in DMSO and further diluted in binding buffer. Non-specific binding was defined in wells containing 100 nM recombinant C5a. Cells and compound were pre-incubated for 30 min at RT. After addition of the radioligand, further incubation for 60 min occurred at 4° C. Cells were harvested on GF/B filters—presoaked in 0.5% polyethylenimine, followed by washing with binding buffer containing 500 mM NaCl, pH 7.4. Filter bound radioactivity was determined by liquid scintillation counting. IC50 and Ki values were calculated using non-linear regression in Graphpad Prism. Ki is calculated using the equation of Cheng and Prusoff (Biochem. Pharmacol. 1973, 22: 3099-3108)

C5a receptor [2] = target: T1, C5a receptor; assay: Calcium Mobilization Assay (C5a-induced Ca2+ mobilization, FLIPR, differentiated U937 cells); format: cell-based; design: endogenous in cells; host or cells: U937 cells differentiated with dibutyryl cAMP; conditions: […] recombinant human C5a, 20 min pre-incubation, multiple values = duplicate experiments, read-out: C5a Induced Ca Mobil. Average IC50
Method: U937 cells (human monocytic cell line) were cultured in RPMI-1640 medium supplemented with 10% fetal bovine serum, 10 mM HEPES, 0.11 g/L pyruvate, 0.29 g/L L-glutamine, 100 IU/mL penicillin G and […] streptomycin. Dibutyryl cAMP (1 mM) was added to induce differentiation 2 or 3 days prior to loading the cells with 4.4 μM Fluo-3AM (Molecular Probes) for 30 min at 37° C. in RPMI medium containing 20 mM HEPES, 0.1% bovine serum albumin (BSA) and 5 mM probenecid. After washing, cells were dissolved at 2×10^6 cells/ml in HBSS buffer (Invitrogen 14190-094) supplemented with 10 mM HEPES, 2.5 mM probenecid and 0.1% BSA (pH=7.4), and sedimented by 1 min centrifugation (1500 rpm) in black 96-well plates (Costar) (200,000 cells/well). A 100× concentration range of test compounds was prepared in DMSO and further diluted in HBSS buffer. U937 cells were pre-incubated with compound for 20 minutes at room temperature (1% DMSO), before recombinant human C5a (Sigma) was added to the cells (1.5 nM). Changes in intracellular free Ca^2+ concentration were measured using the Fluorescent Imaging Plate Reader (FLIPR, Molecular Devices). Fluorescence was recorded every second from 10 seconds before the addition of C5a until 2 min after the addition. The maximal fluorescence obtained during this time frame was used for further calculations.

Row | Molecule | inhibition at 1 µM (C5a receptor [1]) [%] | inhibition at 10 µM (C5a receptor [1]) [%] | IC50 (C5a receptor [2]) [nM] | also measured
1 | CCOc1cc(-c2c(CC)cccc2CC)nc2c1C(N(CC)c1cccc3ccccc13)CCC2 (racemic) [Compound 8, (±)-[2-(2,6-Diethyl-Phenyl)-4-ethoxy-5,6,7,8-tetrahydro-quinolin-5-yl]-ethyl-naphthlen-1-yl-amine] | 94 | 96 | 67 | –
2 | CCc1cccc(CC)c1-c1cc(OC)c2c(n1)CCCC2N(CC)c1cccc2ccccc12 (racemic) [Compound 12, (±)-[2-(2,6-Diethyl-phenyl)-4-methoxy-5,6,7,8-tetrahydro-quinolin-5-yl]-ethyl-naphthlen-1-yl-amine] | 94 | 97 | – | [125I]-C5a Binding % Inhibition 1 μM (C5a receptor [1]): 88% and 98% and 101% and 100% and 81%; [125I]-C5a Binding % Inhibition 10 μM (C5a receptor [1]): 92% and 102, 102, % and 90%
3 | CCc1cccc(CC)c1-c1cc(CC)c2c(n1)CCCC2Nc1cc(OC)ccc1C (racemic) [Compound 25, (±)-[2-(2,6-Diethyl-phenyl)-4-ethyl-5,6,7,8-tetrahydro-quinolin-5-yl]-(5-methoxy-2-methyl-phenyl)-amine] | – | – | 244 | –
4 | CCCC1(Nc2cc(OC)ccc2C)CCCc2nc(-c3c(CC)cccc3CC)cc(OC)c21 (racemic) [Compound 70, (±)-[2-(2,6-Diethyl-phenyl)-4-methoxy-5-propyl-5,6,7,8-tetrahydro-quinolin-5-yl]-(5-methoxy-2-methyl-phenyl)-amine] | – | – | 3470 | –
5 | CCc1cccc(CC)c1-c1cc(OC(C)C)c2c(n1)CCCC2Nc1ccccc1CCO (stereo not shown) [Compound 1] | – | – | 7.3 | –
6 | CCc1cccc(CC)c1-c1cc(OC)c2c(n1)CCCC2Nc1cc(C(F)(F)F)ccc1CO (stereo not shown) [Compound 2] | – | – | 22 | –
7 | CCc1cccc(CC)c1-c1cc(OC)c2c(n1)CCCC2Nc1cc(Cl)ccc1CO (stereo not shown) [Compound 3] | – | – | 26 | –
8 | CCc1cccc(CC)c1-c1cc(OC)c2c(n1)CCC[C@H]2N(CC)c1cccc2ccccc12 [Compound 4] | 94 | 95 | – | [125I]-C5a Binding % Inhibition 1 μM (C5a receptor [1]): 99%; [125I]-C5a Binding % Inhibition 10 μM (C5a receptor [1]): 101%
9 | CCc1cccc(CC)c1-c1cc(OC)c2c(n1)CCCC2Nc1ccccc1CCO (stereo not shown) [Compound 5] | 92 | 97 | 30 | –
10 | CCc1cccc(CC)c1-c1cc(OC2CCCC2)c2c(n1)CCCC2N(CC)c1cccc2ccccc12 (stereo not shown) [Compound 6] | – | – | 37 | –
11 | CCc1cccc(CC)c1-c1cc(OC)c2c(n1)CCCC2Nc1ccc(F)cc1CO (stereo not shown) [Compound 7] | – | – | 53 | –
12 | CCc1cccc(CC)c1-c1cc(SC)c2c(n1)CCCC2N(CC)c1cccc2ccccc12 (stereo not shown) [Compound 10] | 92 | 94 | 82 | –
13 | CCN(c1cccc2ccccc12)C1CCCc2nc(-c3c(Cl)cccc3OC)cc(OC)c21 (stereo not shown) [Compound 13] | – | – | 109 | –
14 | CCc1cccc(CC)c1-c1cc(OC)c2c(n1)CCCC2Nc1ccccc1CO (stereo not shown) [Compound 15] | 79 | 90 | 177 | –
15 | CCN(c1cccc2ccccc12)C1CCCc2nc(-c3c(C)cccc3C)cc(OC)c21 (stereo not shown) [Compound 16] | 88 | 90 | 133 | –
16 | CCc1cccc(CC)c1-c1cc(OC2CCCC2)c2c(n1)CCCC2Nc1cc(OC)ccc1C (stereo not shown) [Compound 17] | – | – | 134 | –
17 | CCc1cccc(CC)c1-c1cc(OC(C)C)c2c(n1)CCCC2Nc1cc(OC)ccc1C (stereo not shown) [Compound 18] | – | – | 137 | –
18 | CCN(c1cccc2ccccc12)C1CCCc2nc(-c3c(C)cc(OC)cc3C)cc(OC)c21 (stereo not shown) [Compound 21] | 91 | 93 | 169 | –
19 | CCc1cccc(CC)c1-c1cc(CC)c2c(n1)CCCC2N(CC)c1cccc2ccccc12 (stereo not shown) [Compound 23] | – | – | 191 | –
20 | CCc1cccc(CC)c1-c1cc(OC)c2c(n1)CCCC2Nc1ccccc1C(=O)O (stereo not shown) [Compound 33] | – | – | 414 | –
21 | CCc1cccc(CC)c1-c1cc(OC)c2c(n1)CCCC2Nc1ccccc1C (stereo not shown) [Compound 46] | 81 | 87 | – | –
22 | CCc1cccc(CC)c1-c1cc(OCCN(C)C)c2c(n1)CCCC2Nc1cc(OC)ccc1C (stereo not shown) [Compound 62] | – | – | 2320 | –
23 | CCc1cccc(CC)c1-c1cc(OC)c2c(n1)CCCC2Oc1ccccc1CCO (stereo not shown) [Compound 64] | – | – | 2390 | –

Row | Molecule | inhibition at 1 µM (C5a receptor [1]) [%] | inhibition at 10 µM (C5a receptor [1]) [%] | IC50 (C5a receptor [2]) [nM] | also measured
24 | CCc1cccc(CC)c1-c1cc(OC)c2c(n1)CCCC2Nc1cnccc1CO (stereo not shown) [Compound 71] | – | – | 3470 | –
25 | CCc1cccc(CC)c1-c1cc(OC)c2c(n1)CCCC2Nc1ccccc1CN (stereo not shown) [Compound 75] | – | – | 4960 | –
26 | CCc1cccc(CC)c1-c1cc(OC)c2c(n1)CCCC2N1CCc2ccc(OC)cc2C1 (stereo not shown) [Compound 100] | 70 | 82 | – | –
27 | CCc1cccc(CC)c1-c1cc(OC)c2c(n1)CCCC2N1CCc2ccc(C(F)(F)F)cc2C1 (stereo not shown) [Compound 101] | 75 | 79 | – | –
28 | CCc1cccc(CC)c1-c1cc(OC)c2c(n1)CCCC2Nc1cccc2ccccc12 (stereo not shown) [Compound 103] | – | – | – | [125I]-C5a Binding % Inhibition 1 μM (C5a receptor [1]): 48%; [125I]-C5a Binding % Inhibition 10 μM (C5a receptor [1]): 61%
29 | CCN(c1cccc2ccccc12)C1CCCc2nc(-c3ccccc3-c3ccccc3)cc(OC)c21 (stereo not shown) [Compound 107] | 76 | 84 | – | –
30 | COc1cc(-c2c(C)cccc2C)nc2c1C(N(C)c1c(C)cccc1C)CCC2 (stereo not shown) [Compound 114] | 63 | 73 | – | –
31 | CCc1cccc(CC)c1-c1cc(OC)c2c(n1)CCCC2N(C)c1cccc2c(OC)cccc12 (stereo not shown) [Compound 118] | 71 | 77 | – | –
32 | CCc1cccc(CC)c1-c1cc(OC)c2c(n1)CCCC2N(C)c1cc(-c2ccccc2)ccc1C (stereo not shown) [Compound 122] | 81 | 84 | – | –
33 | CCc1cccc(CC)c1-c1cc(OC)c2c(n1)CCCC2N1CCc2cc(OC)c(OC)cc2C1 (stereo not shown) [Compound 127] | -9 | 42 | – | –
34 | CCc1cccc(CC)c1-c1cc(OC)c2c(n1)CCCC2Nc1cccc2ccccc12 (stereo not shown) [Compound 132] | – | – | – | [125I]-C5a Binding % Inhibition 1 μM (C5a receptor [1]): 12%; [125I]-C5a Binding % Inhibition 10 μM (C5a receptor [1]): 34%
35 | CCN(c1cccc2ccccc12)C1CCCc2nc(-c3ccsc3)cc(OC)c21 (stereo not shown) [Compound 134] | -8 | 40 | – | –
36 | CCN(c1cccc2ccccc12)C1CCCc2nc(-c3cccnc3)cc(OC)c21 (stereo not shown) [Compound 136] | 2 | 35 | – | –
37 | CCc1cccc(CC)c1-c1cc(OC)c2c(n1)CCCC2Oc1ccccc1CO (stereo not shown) [Compound 139] | – | – | > 10000 | –
38 | CCc1cccc(CC)c1-c1cc(OC)c2c(n1)CCCC2(C)Nc1cc(OC)ccc1C (stereo not shown) [Compound 140] | – | – | > 10000 | –
39 | CCc1cccc(CC)c1-c1cc(OC)c2c(n1)CCCC2Nc1ccc(CO)cc1C (stereo not shown) [Compound 141] | – | – | > 10000 | –
40 | CCc1cccc(CC)c1-c1cc(OC)c2c(n1)CCCC2Nc1cccc(CO)c1 (stereo not shown) [Compound 142] | – | – | > 10000 | –
41 | CCc1cccc(CC)c1-c1cc(OC)c2c(n1)CCCC2Oc1cc(OC)ccc1C=O (stereo not shown) [Compound 143] | – | – | > 10000 | –
42 | CCc1cccc(CC)c1-c1cc(OC)c2c(n1)CCCC2NCc1ccccc1N (stereo not shown) [Compound 145] | – | – | > 10000 | –
43 | CCc1cccc(CC)c1-c1cc(O)c2c(n1)CCCC2Nc1cc(O)ccc1C (stereo not shown) [Compound 146] | – | – | > 10000 | –
44 | CCOC(=O)c1ccccc1OC1CCCc2nc(-c3c(CC)cccc3CC)cc(OC)c21 (stereo not shown) [Compound 150] | – | – | > 10000 | –
45 | CCN(c1cccc2ccccc12)C1CCCc2nc(-c3c(C)noc3C)cc(OC)c21 (stereo not shown) [Compound 151] | – | – | > 10000 | –
46 | C5a: anaphylatoxin C5a, 74-amino acid N-terminal fragment of complement factor C5; recombinant human C5a (Sigma), radioligand [125I]-C5a (protein, UniProt P01031 678-751, looked up, C5a anaphylatoxin also 125I-labelled radioligand) C5a anaphylatoxin: TLQKKIEEIAAKYKHSVVKKCCYDGACVNNDETCEQRAARISLGPRCIKAFTECCVVASQLRANISHKDMQLGR | – | – | – | Kd (C5a receptor [1]; read-out: C5a Kd, Kd of C5a used for the Ki calculation): 0.324 nM
